Measurements as given in patent US20230100707A1, “MELANOMA THERAPEUTICS” (ESCAPE THERAPEUTICS, INC., priority 2020, published 2023).
Where no end group is shown, it is not given here.

Legend:
[1] = system: Human Primary Melanocytes; assay: Trypan blue dye exclusion toxicity on human primary melanocytes; assay type: cell-based; settings: for cell death: 1 millimolar, 72 hours of incubation, melanocytes; for % toxicity: trypan blue
Protocol: (§1) Cellular toxicity was measured using a trypan blue dye exclusion assay. Cells were cultured in 6-well plates at a density of 4×10^5 cells per well. […] After 24 hours, an aliquot was taken and cells counted using a hemacytometer. Cytotoxicity was measured according to the following formula: […]
(§2) The same procedure was repeated after 3 and 6 days of incubation.

Human Fibroblasts = assay: Trypan blue dye exclusion toxicity on human fibroblasts; assay type: cell-based; settings: for cell death: 1 millimolar, 72 hours of incubation, fibroblasts; for % toxicity: trypan blue
Protocol: as §1, §2

mouse melanoma cells = settings: for cell death / cytotoxicity: 3 millimolar, incubation for 3 days, MTT (FIG. 4); for cytotoxicity to mouse melanoma (figure): treated with 3 millimolar, figure vs untreated
Protocol: (§3) Human and mouse melanoma cell lines as wells as Fibroblasts were cultured using DMEM with L-glutamine, 10 percent FBS and 1 percent P/S (Thermo Fisher Scientific, NY). Human melanocytes were cultured using medium 254 (Thermo Fisher Scientific, NY) and incubated at 37 degrees Celsius in a humidified 5 percent CO2 chamber.
(§4) Proliferation rates were determined using a TACS® MTT Cell Proliferation Kit (R&D Systems, Minneapolis, Minn.). Cells were seeded at 2.5×10 ^4 per well in 96-well plates in a humidified atmosphere with 5 percent CO2 at 37 degrees Celsius. Twenty-four hours later, oligopeptides or hydroquinone were added to the corresponding wells at varying concentrations (0.03, 0.1, 0.3, 1, and 3 millimolar (mM)), and cultures were incubated for 72 hours. The remainder of the procedure was performed following the manufacturer's protocol.

[2] = system: human metastatic melanoma line harboring the V600E BRAF mutation; assay: MTT cell proliferation and viability assay, human melanoma cells
Protocol: as §3, §4

[3] = system: human epidermal keratinocytes; assay: Cytotoxicity towards human epidermal keratinocytes (figures); assay type: cell-based; settings: normal human epidermal keratinocytes, 3 millimolar in figure
Protocol: Human neonatal epidermal keratinocytes were cultured in Epilife media containing 60 μM of calcium chloride (Thermo Fisher Scientific, NY). All cell cultures were incubated in a humidified chamber at 37 degrees Celsius and 5 percent CO2.
The figures show human epidermal keratinocytes with 3 millimolar P5, human epidermal keratinocytes with 3 millimolar P14, and human epidermal keratinocytes with 3 millimolar HQ.

Molecule	cell death [1] [%]	% toxicity ([1]; Day 1, 30 μM) [%]	% toxicity ([1]; Day 1, 100 μM) [%]	% toxicity ([1]; Day 1, 300 μM) [%]	% toxicity ([1]; Day 1, 1000 μM) [%]	% toxicity ([1]; Day 3, 30 μM) [%]	% toxicity ([1]; Day 3, 100 μM) [%]	% toxicity ([1]; Day 3, 300 μM) [%]	% toxicity ([1]; Day 3, 1000 μM) [%]	% toxicity ([1]; Day 6, 30 μM) [%]	% toxicity ([1]; Day 6, 100 μM) [%]	% toxicity ([1]; Day 6, 300 μM) [%]	% toxicity ([1]; Day 6, 1000 μM) [%]	cell death (Human Fibroblasts) [%]	% toxicity (Human Fibroblasts; Day 1, 30 μM) [%]	% toxicity (Human Fibroblasts; Day 1, 100 μM) [%]	% toxicity (Human Fibroblasts; Day 1, 300 μM) [%]	% toxicity (Human Fibroblasts; Day 1, 1000 μM) [%]	% toxicity (Human Fibroblasts; Day 3, 30 μM) [%]	cytotoxic effects towards keratinocytes [3]	further results
Oc1ccc(O)cc1 [HQ, Hydroquinone, reference compound]	100	41	98	100	100	53	100	100	100	60	100	100	100	100	3	17	27	100	9	indiscriminate cytotoxicity	% toxicity ([1]; Day 1, 10 μM): 27%; % toxicity ([1]; Day 3, 10 μM): 29%; % toxicity ([1]; Day 6, 10 μM): 35%; % toxicity (Human Fibroblasts; Day 1, 3000 μM): 100%; % toxicity (Human Fibroblasts; Day 3, 100 μM): 20%; % toxicity (Human Fibroblasts; Day 3, 300 μM): 44%; % toxicity (Human Fibroblasts; Day 3, 1000 μM): 100%; % toxicity (Human Fibroblasts; Day 3, 3000 μM): 100%; % toxicity (Human Fibroblasts; Day 6, 30 μM): 15%; % toxicity (Human Fibroblasts; Day 6, 100 μM): 30%; % toxicity (Human Fibroblasts; Day 6, 300 μM): 54%; % toxicity (Human Fibroblasts; Day 6, 1000 μM): 100%; % toxicity (Human Fibroblasts; Day 6, 3000 μM): 100%; cell death / cytotoxicity (mouse melanoma cells): 90%; cytotoxicity ([2]; human, 72 h, 1 mM): ~80%
CC(C)CC(NC(=O)C1CCCN1)C(=O)NCC(=O)O (centres unmarked) [P5, PLG]	9	0.1	0.1	2.2	7.8	0.1	0.1	2.4	8.7	0.1	0.1	2.7	9.3	3	0.1	0.1	0.1	2.1	0.1	very little to no cytotoxic effects	% toxicity ([1]; Day 1, 3000 μM): 13.3%; % toxicity ([1]; Day 3, 3000 μM): 13.5%; % toxicity ([1]; Day 6, 3000 μM): 14.5%; % toxicity (Human Fibroblasts; Day 1, 10 μM): 0.1%; % toxicity (Human Fibroblasts; Day 3, 10 μM): 0.1%; % toxicity (Human Fibroblasts; Day 3, 100 μM): 0.1%; % toxicity (Human Fibroblasts; Day 3, 300 μM): 0.5%; % toxicity (Human Fibroblasts; Day 3, 1000 μM): 2.6%; % toxicity (Human Fibroblasts; Day 6, 10 μM): 0.1%; % toxicity (Human Fibroblasts; Day 6, 30 μM): 0.1%; % toxicity (Human Fibroblasts; Day 6, 100 μM): 0.1%; % toxicity (Human Fibroblasts; Day 6, 300 μM): 1.1%; % toxicity (Human Fibroblasts; Day 6, 1000 μM): 3.9%; cytotoxicity to mouse melanoma (figure) (mouse melanoma cells): selectively cytotoxic
RRFVLL [P14, RRFVLL]	–	–	–	–	–	–	–	–	–	–	–	–	–	–	–	–	–	–	–	very little to no cytotoxic effects	cell death / cytotoxicity (mouse melanoma cells): 49%; cytotoxicity to mouse melanoma (figure) (mouse melanoma cells): selectively cytotoxic; cytotoxicity ([2]; 1 millimolar, human melanoma cells, MTT (FIG. 5)): ~36%; cytotoxicity to human melanoma (figure) ([2]; treated with 3 millimolar, figure vs untreated): selectively cytotoxic
